In article PMC6440935, “Characterization and phase I study of CLR457, an orally bioavailable pan-class I PI3-kinase inhibitor” (Investigational New Drugs, 2018):
Where two headings read alike, the source gives them in different places.

[1] = drug-related, All Patients, N = 31
[2] = drug-related, all patients N = 31
[3] = suspected related, all patients

Excerpt: The primary objective was to define the maximum tolerated dose (MTD). Secondary objectives included assessments for safety, tolerability, pharmacokinetic (PK) profile, and preliminary antitumor activity.
Patients had histologically documented locally advanced or metastatic solid tumors harboring an activating PIK3CA mutation or amplification, PTEN loss of function, c-MET activation, [16, 17] […] Other key inclusion criteria included age ≥ 18 years, Eastern Cooperative Oncology Group performance status (ECOG-PS) ≤2, adequate organ function, measurable or non-measurable disease as determined by Response Evaluation Criteria in Solid Tumors (RECIST) version 1.1.
The starting dose for CLR457 was 5 mg QD, based on preclinical toxicology studies in accordance with ICH guidelines, and was administered at the same time each day ±2 h in a fasted state. Various doses were planned up to 300 mg QD until MTD determination.
Safety was evaluated by incidence, nature, severity, and relatedness of adverse events (AEs), and graded according to National Cancer Institute - Common Terminology Criteria for Adverse Events (NCI CTCAE) v4.0.3. DLTs were defined as any hematologic or non-hematologic ≥ Grade 3 AE assessed as possibly related to CLR457 that occurred within the first cycle (28 days) of treatment. In addition, uncontrolled (> 14 days) Grade 2 rash or hyperglycemia were also considered DLTs. All AEs regardless of attribution were collected until 30 days following the last administration of treatment or study discontinuation/termination.
Descriptive methods were used to tabulate toxicity and response endpoints in the clinical trial. All patients treated with CLR457 were included for safety. […] Dose escalation was guided by an adaptive Bayesian logistic regression model (BLRM) incorporating the escalation with overdose control (EWOC) principle. […] The study data (including DLTs during cycle 1 and other safety and PK data) were reviewed by the sponsor and trial investigators at each dose level. […] The Full Analysis Set (FAS) included all patients who received at least one dose of CLR457. Safety set included all patients who received at least one dose of CLR457 and had at least one valid post-baseline assessment. The Dose-determining set (DDS) included all patients from the safety set who either met the following minimum exposure criterion and had sufficient safety evaluations, or experienced a DLT during Cycle 1 (the first 28 days of dosing). The Pharmacokinetic analysis set included all patients who had at least one blood sample providing evaluable PK data.

## C[C@H]1OC(=O)N(c2cc(-c3cnc(N)nc3C(F)(F)F)nc(N3CCOCC3)n2)[C@H]1CO [CLR457]
drug-related, 100 mg, N = 11
  Dehydration, All Grade: 1 (9.1) n (%)
  Dehydration, Grade ≥ 3: 0 n (%)
  Diarrhea, All Grade: 5 (45.5) n (%)
  Diarrhea, Grade ≥ 3: 1 (9.1) n (%)
  Dry mouth, All Grade: 1 (9.1) n (%)
  Dry mouth, Grade ≥ 3: 0 n (%)
  Dry skin, All Grade: 1 (9.1) n (%)
  Dry skin, Grade ≥ 3: 0 n (%)
  Dysgeusia, All Grade: 3 (27.3) n (%)
  Dysgeusia, Grade ≥ 3: 0 n (%)
  Fatigue, All Grade: 4 (36.4) n (%)
  Fatigue, Grade ≥ 3: 1 (9.1) n (%)
  Headache, All Grade: 1 (9.1) n (%)
  Headache, Grade ≥ 3: 0 n (%)
  Hyperglycemia, All Grade: 4 (36.4) n (%)
  Hyperglycemia, Grade ≥ 3: 1 (9.1) n (%)
  Hypomagnesaemia, All Grade: 1 (9.1) n (%)
  Hypomagnesaemia, Grade ≥ 3: 0 n (%)
  Maculo-papular rash, All Grade: 7 (63.6) n (%)
  Maculo-papular rash, Grade ≥ 3: 5 (45.5) n (%)
  Nausea, All Grade: 4 (36.4) n (%)
  Nausea, Grade ≥ 3: 0 n (%)
  Pneumonitis, All Grade: 2 (18.2) n (%)
  Pneumonitis, Grade ≥ 3: 2 (18.2) n (%)
  Pruritus, All Grade: 3 (27.3) n (%)
  Pruritus, Grade ≥ 3: 0 n (%)
  Pyrexia, All Grade: 3 (27.3) n (%)
  Pyrexia, Grade ≥ 3: 0 n (%)
  Rash, All Grade: 3 (27.3) n (%)
  Rash, Grade ≥ 3: 1 (9.1) n (%)
  Stomatitis, All Grade: 9 (81.8) n (%)
  Stomatitis, Grade ≥ 3: 0 n (%)
  Vomiting, All Grade: 2 (18.2) n (%)
  Vomiting, Grade ≥ 3: 0 n (%)
  Weight decreased, All Grade: 0 n (%)
  Weight decreased, Grade ≥ 3: 0 n (%)
[1]
  Asthenia, All Grade: 3 (9.7) n (%)
  Asthenia, Grade ≥ 3: 0 n (%)
  Chills, All Grade: 2 (6.5) n (%)
  Chills, Grade ≥ 3: 0 n (%)
  Colitis, All Grade: 2 (6.5) n (%)
  Colitis, Grade ≥ 3: 2 (6.5) n (%)
  Cough, All Grade: 2 (6.5) n (%)
  Cough, Grade ≥ 3: 0 n (%)
  Decreased appetite, All Grade: 7 (22.6) n (%)
  Decreased appetite, Grade ≥ 3: 0 n (%)
  Decreased neutrophil count, All Grade: 2 (6.5) n (%)
  Decreased neutrophil count, Grade ≥ 3: 1 (3.2) n (%)
  Dehydration, All Grade: 2 (6.5) n (%)
  Dehydration, Grade ≥ 3: 1 (3.2) n (%)
  Diarrhea, All Grade: 12 (38.7) n (%)
  Diarrhea, Grade ≥ 3: 2 (6.5) n (%)
  Dry mouth, All Grade: 2 (6.5) n (%)
  Dry mouth, Grade ≥ 3: 0 n (%)
  Dry skin, All Grade: 2 (6.5) n (%)
  Dry skin, Grade ≥ 3: 0 n (%)
  Dysgeusia, All Grade: 4 (12.9) n (%)
  Dysgeusia, Grade ≥ 3: 0 n (%)
  Fatigue, All Grade: 9 (29.0) n (%)
  Fatigue, Grade ≥ 3: 1 (3.2) n (%)
  Headache, All Grade: 2 (6.5) n (%)
  Headache, Grade ≥ 3: 0 n (%)
  Hyperglycemia, All Grade: 7 (22.6) n (%)
  Hyperglycemia, Grade ≥ 3: 1 (3.2) n (%)
  Hypomagnesaemia, All Grade: 2 (6.5) n (%)
  Hypomagnesaemia, Grade ≥ 3: 0 n (%)
  Maculo-papular rash, All Grade: 11 (35.5) n (%)
  Maculo-papular rash, Grade ≥ 3: 8 (25.8) n (%)
  Nausea, All Grade: 9 (29.0) n (%)
  Nausea, Grade ≥ 3: 0 n (%)
  Pneumonitis, All Grade: 2 (6.5) n (%)
  Pneumonitis, Grade ≥ 3: 2 (6.5) n (%)
  Pruritus, All Grade: 5 (16.1) n (%)
  Pruritus, Grade ≥ 3: 0 n (%)
  Pyrexia, All Grade: 4 (12.9) n (%)
  Pyrexia, Grade ≥ 3: 0 n (%)
  Rash, All Grade: 6 (19.4) n (%)
  Rash, Grade ≥ 3: 2 (6.5) n (%)
  Stomatitis, All Grade: 14 (45.2) n (%)
  Stomatitis, Grade ≥ 3: 0 n (%)
  Vomiting, All Grade: 5 (16.1) n (%)
  Vomiting, Grade ≥ 3: 0 n (%)
  Weight decreased, All Grade: 2 (6.5) n (%)
  Weight decreased, Grade ≥ 3: 0 n (%)
[2]
  Decreased appetite, any grade: 22.6%
  Diarrhea, any grade: 38.7%
  Fatigue, any grade: 29%
  Hyperglycemia, any grade: 22.6%
  Maculo-papular rash, any grade: 35.5%
  Nausea, any grade: 29%
  Stomatitis, any grade: 45.2%
In vivo
  Drug-related AEs leading to discontinuation of study treatment: 16.1%
  SAEs suspected to be related to the study treatment: 22.6%
Of 31 patients treated, 5-100 mg QD
  Patients with DLTs: 4 patients
[3]
  SAE colitis: 6.5%
  SAE diarrhea: 6.5%
  SAE pneumonitis: 6.5%
